# Columns and labels:
# PDE2A3 (580–941) = target: T1, PDE2A3 (580–941) (Homo sapiens, UniProt O00408); test: PDE activity assay, PDE2A3 catalytic domain; assay type: biochemical
# T1 construct: PDE2A3 (580–941)
# Method: (§1) The enzymatic activities of the catalytic domains of PDE9 and other PDEs were measured by using cGMP or cAMP as substrates. The assay buffer contained 20–50 mM Tris–HCl (pH 7.5–8.0), 10 mM MgCl2 or 4 mM MnCl2, 1 mM DTT, and 10–20 nM ^3H-cGMP or ^3H-cAMP (20000–30000 cpm/assay, GE Healthcare). The reaction was performed at room temperature for 15 min and then terminated by the addition of 0.2 M ZnSO4. The addition of 0.25 M BaSO4 precipitated the generated ^3H-GMP, whereas the unreacted ^3H-cGMP remained in solution. The radioactivity in the supernatant was measured in 2.5 mL with an Ultim Gold liquid scintillation counter. […] The IC50 values were calculated by nonlinear regression method by using GraphPad Prism 5.0 Software.
# [1] = Oxygen Radical Absorbance Capacity (ORAC-FL) assay; details: Trolox as standard
# Method: The assays were performed in 75 mM PBS (pH 7.4) and all the tested compounds were dissolved in DMSO and diluted with the PBS. Trolox was used as a standard (1–10 μM final concentration). The tested compounds at different concentrations (20 μL, final concentration: 2 μM) and fluorescein (FL, 120 μL, final concentration: 300 nM) were placed in the wells of a black 96-well plate. The mixture was incubated for 10 min at 37 °C and then, APPH solution (60 μL, final concentration: 12 mM diluted by 75 mM PBS) was added rapidly. […] A blank (FL + AAPH), with PBS replacing the compounds and Trolox was used for calibration in each assay. The compounds were tested at different concentrations (0.5–10 μM). The experiments were performed in three independent runs for each sample. The fluorescence measurements were normalized to that of the blank (without antioxidant). The area under the fluorescence decay curve (AUC) was calculated using the following equation (eq. 2):
# where f0 is the fluorescence reading at 0 min and fi is the fluorescence reading at time i. The net AUC was calculated by the expression AUCsample − AUCblank. Regression equations between net AUC and Trolox concentrations were calculated. The final results were expressed in μM of Trolox equivalent/μM of pure compounds.
# [2] = PAMPA-BBB in vitro blood-brain barrier permeation assay; assay type: in vitro ADME
# Method: The blood–brain barrier penetration capacity of the compounds was evaluated by using the parallel artificial membrane permeation assay (PAMPA). […] The porcine brain lipid (PBL) was obtained from Avanti Polar Lipids. The donor microplate (PVDF membrane, pore size of 0.45 nm) and the acceptor microplate were from Millipore. The acceptor 96-well microplate (COSTAR) was filled with 300 μL of a PBS/EtOH mixture (7:3) and the filter membrane was impregnated with 4 μL of PBL in dodecane (20 mg/mL). The compounds were dissolved in DMSO at a concentration of 5 mg/mL and diluted with the PBS/EtOH mixture (7:3) to a concentration of 100 μg /mL. Then, 200 μL of this solution was added to the donor wells and the wells were carefully placed on the acceptor plate, which was then incubated for 10 h at 25 °C in a vibrationless environment. After the incubation, the donor plate was removed and the concentration of compounds in the acceptor wells was determined with a UV plate reader (Flexstation 3). Each sample was analyzed at five wavelengths in four wells, and at least three independent runs were performed. The results are expressed as the mean ± standard deviation. In these experiments, 13 quality control standards of known BBB permeability were included to validate the analysis set.
# where Vd is the volume in the donor well, Va is the volume in acceptor well, A is the filter area, t is the permeation time, [drug]acceptor is the absorbance of the compound in the acceptor well, and [drug]equilibrium is the theoretical equilibrium absorbance.
# PDE5A1 (535–860) = PDE5A1 (535–860) (Homo sapiens, UniProt O76074); test: PDE activity assay, PDE5A1 catalytic domain; assay type: biochemical
# Method: as §1
# SH-SY5Y cells [3] = test: MTT cytotoxicity assay; assay type: cell-based, human; details: below the 10 μM concentration, 48 h
# PDE8A1 (480–820) = target: T2, PDE8A1 (480–820) (Homo sapiens, UniProt O60658); test: PDE activity assay, PDE8A1 catalytic domain; assay type: biochemical
# T2 construct: PDE8A1 (480–820)
# Method: as §1
# PDE10A2 (448–789) = target: T3, PDE10A2 (448–789) (Homo sapiens, UniProt Q9Y233); test: PDE activity assay, PDE10A2 catalytic domain; assay type: biochemical
# T3 construct: PDE10A2 (448–789)
# Method: as §1
# PDE4D2 (86–413) = target: T4, PDE4D2 (86–413) (Homo sapiens, UniProt Q08499); test: PDE activity assay, PDE4D2 catalytic domain; assay type: biochemical
# T4 construct: PDE4D2 (86–413)
# Method: as §1
# Aβ1-42 fibrils = target: T5, Aβ1-42 fibrils (Homo sapiens, UniProt P05067); test: ThT assay, disaggregation of Cu^2+-induced Aβ1-42 fibrils; assay type: biochemical; details: [Aβ1-42] = 25 μM, compound 50 μM, [Cu^2+] = 25 μM, additional 24 h
# T5 construct: purchased Sigma
# Method: For assaying the disaggregation of the copper (II)-induced Aβ1-42 fibrils, the Aβ1-42 stock solution was first diluted in HEPES buffer ([…], pH 6.6). The mixture of the peptide (10 μL, 25 μM final concentration) and copper (II) (10 μL, 25 μM final concentration) was then incubated at 37 °C for 24 h. Then, the test compound (10 μL, 50 μM final concentration) was added and incubated at 37 °C for an additional 24 h. Thereafter, 30 μL of the sample was diluted to a final volume of 200 μL with 50 mM glycine-NaOH buffer (pH 8.0) containing thioflavin-T (5 μM) in the dark. The detection method used was the same as that described above.
# PDE7A1 (130–482) = target: T6, PDE7A1 (130–482) (Homo sapiens, UniProt Q13946); test: PDE activity assay, PDE7A1 catalytic domain; assay type: biochemical
# T6 construct: PDE7A1 (130–482)
# Method: as §1
# [4] = Lipid-water distribution coefficient, shake-flask 1-octanol/water; assay type: physicochemical; details: 1-octanol/water (1:1), means of at least three independent tests
# [5] = Metal-chelating capacity by UV-vis spectrophotometry; assay type: physicochemical; details: 30% (v/v) ethanol/buffer, pH 7.4
# Method: The experiments were performed according to previously reported methods. The metal chelation was monitored spectrophotometrically using a UV–vis spectrophotometer. […].
# SH-SY5Y cells [6] = test: Intracellular antioxidant activity (DCFH-DA, t-BuOOH); assay type: cell-based, human; details: t-BuOOH-induced; 5 μM of 16 vs 10 μM of Trolox
# Method: Cell culture was performed as reported previously. The human neuron-like cell line SH-SY5Y was obtained from the Institute of Biochemistry and Cell Biology, Shanghai Institute for Biological Sciences (Shanghai, China). The cells were cultured at 37 °C in a humidified atmosphere of 5% CO2 in Dulbecco’s modified Eagle’s medium (DMEM, GIBCO) supplemented with 10% fetal calf serum (FCS, GIBCO), 1 mM glutamine, 100 IU/mL penicillin, and 100 μg/mL streptomycin.
# The antioxidant activity was determined as reported previously. The SH-SY5Y cells were seeded at a density of 1 × 10^4 cells/well in a 96-well plate. After 24 h, the culture medium was replaced with medium containing tested compounds, and the cells were cultured for an additional 24 h. Then, the cells were washed with PBS and incubated with 5 μM DCFH-DA (diluted by PBS) at 37 °C for 30 min. […] Then, the fluorescence of the cells in each well was measured (λexcitation = 485 nm, λemission = 535 nm) with a multifunctional microplate reader (Flex Station 3). The antioxidant activity was expressed as a percentage relative to that of the control cells and calculated using the formula (Ft – Fnt)/(Ft’ – Fnt) ×100, where Ft is the fluorescence value of the cells treated with the tested compound, Ft’ is the fluorescence value of the cells not treated with the tested compound, and Fnt is the fluorescence value of the cells treated with t-BuOOH.
# Aβ1-42 = target: T7, Aβ1-42 (Homo sapiens, UniProt P05067); test: Transmission electron microscopy (TEM) assay of Aβ1-42; assay type: biochemical; details: [Aβ1-42] = 25 μM, compound 50 μM, [Cu^2+] = 25 μM, 37 °C, 24 h
# T7 construct: purchased Sigma
# Method: The assays were performed as reported previously. For the TEM assay of copper (II)-induced Aβ1-42 aggregation and the disaggregation of the fibrils, the samples were pretreated as described for the ThT assay. Samples (10 μL) were placed on a carbon-coated copper/rhodium grid for 2 min. Then, each grid was stained with uranyl acetate (1%, 5 μL) for 2 min. After the excess staining solution was drained off, the specimen was transferred for imaging by a transmission electron microscope (JEOL JEM-1400).
# PDE1B2 (10–487) = target: T8, PDE1B2 (10–487) (Homo sapiens, UniProt Q01064); test: PDE activity assay, PDE1B2 catalytic domain; assay type: biochemical
# T8 construct: PDE1B2 (10–487)
# Method: as §1
# [7] = Cu-ascorbate redox system (CCA fluorescence); details: [Cu^2+] = 5 μM, [16] = 15 μM, ascorbate 150 μM, CCA 50 μM, PBS pH 7.4
# Method: The experiments were performed as reported previously. […]. Then, ascorbate (150 μM) was added to the solution, and the fluorescence was recorded every 20 s (λexcitation = 395 nm, λemission = 450 nm). Each experiment was performed in triplicate. All test solutions contained 1 μM desferryl and 0.1% methanol.
# PDE3A (679–1087) = target: T9, PDE3A (679–1087) (Homo sapiens, UniProt Q14432); test: PDE activity assay, PDE3A catalytic domain; assay type: biochemical
# T9 construct: PDE3A (679–1087)
# T9 sequence (Q14432 679-1087): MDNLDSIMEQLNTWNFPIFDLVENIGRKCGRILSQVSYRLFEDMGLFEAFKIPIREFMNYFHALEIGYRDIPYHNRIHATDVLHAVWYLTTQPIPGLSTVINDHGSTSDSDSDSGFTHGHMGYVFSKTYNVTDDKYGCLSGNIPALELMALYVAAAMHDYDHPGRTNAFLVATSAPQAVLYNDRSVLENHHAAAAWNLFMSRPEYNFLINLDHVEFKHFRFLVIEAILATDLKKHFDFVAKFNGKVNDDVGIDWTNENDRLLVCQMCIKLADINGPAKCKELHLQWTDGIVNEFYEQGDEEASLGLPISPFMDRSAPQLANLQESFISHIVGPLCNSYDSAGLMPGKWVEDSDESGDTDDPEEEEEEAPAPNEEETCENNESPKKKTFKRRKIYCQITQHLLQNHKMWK
# Method: as §1
# T7 sequence (P05067 672-713 limits assumed): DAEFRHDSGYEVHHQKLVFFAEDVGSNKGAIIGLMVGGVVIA
# T8 sequence (Q01064 10-487 isoform Q01064-2): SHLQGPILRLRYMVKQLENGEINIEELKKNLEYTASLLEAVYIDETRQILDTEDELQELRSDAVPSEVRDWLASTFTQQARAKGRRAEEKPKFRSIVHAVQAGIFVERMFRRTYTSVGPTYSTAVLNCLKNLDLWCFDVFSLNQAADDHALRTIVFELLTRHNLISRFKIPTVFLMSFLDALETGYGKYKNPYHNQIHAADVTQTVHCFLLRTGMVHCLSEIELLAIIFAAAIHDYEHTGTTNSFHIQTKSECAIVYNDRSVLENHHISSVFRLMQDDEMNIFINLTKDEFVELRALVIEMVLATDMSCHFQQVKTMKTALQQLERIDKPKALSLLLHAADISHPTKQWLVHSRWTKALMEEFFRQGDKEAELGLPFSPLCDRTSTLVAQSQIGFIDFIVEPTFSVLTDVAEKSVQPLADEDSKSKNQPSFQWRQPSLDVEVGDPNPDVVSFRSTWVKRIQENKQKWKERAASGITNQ
# T2 sequence (O60658 480-820): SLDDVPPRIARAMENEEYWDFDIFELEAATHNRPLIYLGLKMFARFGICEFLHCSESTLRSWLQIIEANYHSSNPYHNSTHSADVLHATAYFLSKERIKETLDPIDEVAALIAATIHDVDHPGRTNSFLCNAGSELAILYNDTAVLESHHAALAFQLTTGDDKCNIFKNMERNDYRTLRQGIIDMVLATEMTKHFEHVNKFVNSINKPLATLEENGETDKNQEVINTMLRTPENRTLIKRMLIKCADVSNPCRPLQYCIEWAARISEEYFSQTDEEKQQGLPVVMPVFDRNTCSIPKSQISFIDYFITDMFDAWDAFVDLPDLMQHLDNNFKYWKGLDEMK
# T4 sequence (Q08499 388-715): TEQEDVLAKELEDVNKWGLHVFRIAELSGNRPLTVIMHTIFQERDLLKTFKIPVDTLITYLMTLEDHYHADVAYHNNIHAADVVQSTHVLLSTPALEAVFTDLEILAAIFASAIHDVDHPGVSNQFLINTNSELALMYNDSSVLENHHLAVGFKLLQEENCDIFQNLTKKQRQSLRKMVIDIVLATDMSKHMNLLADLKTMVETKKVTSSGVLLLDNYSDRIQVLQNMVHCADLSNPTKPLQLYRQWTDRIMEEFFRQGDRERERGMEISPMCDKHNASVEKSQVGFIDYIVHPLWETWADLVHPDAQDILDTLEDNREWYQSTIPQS
# T1 sequence (O00408 580-941): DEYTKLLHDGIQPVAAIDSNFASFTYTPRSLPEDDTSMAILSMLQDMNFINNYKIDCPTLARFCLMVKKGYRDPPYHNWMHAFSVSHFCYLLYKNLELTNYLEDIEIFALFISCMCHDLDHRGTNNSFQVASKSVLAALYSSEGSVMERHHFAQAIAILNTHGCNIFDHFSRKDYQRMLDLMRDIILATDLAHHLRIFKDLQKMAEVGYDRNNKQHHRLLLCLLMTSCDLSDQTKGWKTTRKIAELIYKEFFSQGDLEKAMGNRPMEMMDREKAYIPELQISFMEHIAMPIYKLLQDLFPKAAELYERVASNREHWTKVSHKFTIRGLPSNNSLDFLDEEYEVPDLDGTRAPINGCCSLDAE
# T5 sequence (P05067 672-713 limits assumed): as the sequence (P05067 672-713 limits assumed) above
# T6 sequence (Q13946 130-482): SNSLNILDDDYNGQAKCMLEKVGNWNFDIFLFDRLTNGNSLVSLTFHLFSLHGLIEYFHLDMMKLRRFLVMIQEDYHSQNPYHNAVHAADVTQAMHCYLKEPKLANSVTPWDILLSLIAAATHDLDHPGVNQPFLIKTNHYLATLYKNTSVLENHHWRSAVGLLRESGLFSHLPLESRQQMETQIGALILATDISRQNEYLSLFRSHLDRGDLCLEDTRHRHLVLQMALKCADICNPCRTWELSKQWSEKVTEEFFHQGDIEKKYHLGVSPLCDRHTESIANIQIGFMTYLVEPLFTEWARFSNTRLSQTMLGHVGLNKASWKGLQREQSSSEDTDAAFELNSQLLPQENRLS
# T3 sequence (Q9Y233 714-1055): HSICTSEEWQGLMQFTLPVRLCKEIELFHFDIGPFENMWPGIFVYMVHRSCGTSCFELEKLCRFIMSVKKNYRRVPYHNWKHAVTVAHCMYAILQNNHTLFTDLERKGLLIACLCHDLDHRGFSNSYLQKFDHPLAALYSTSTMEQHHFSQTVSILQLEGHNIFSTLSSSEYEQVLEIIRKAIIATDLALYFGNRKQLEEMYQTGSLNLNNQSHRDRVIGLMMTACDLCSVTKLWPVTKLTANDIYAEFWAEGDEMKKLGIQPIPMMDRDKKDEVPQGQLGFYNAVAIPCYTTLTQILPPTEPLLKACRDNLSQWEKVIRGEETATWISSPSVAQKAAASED
smiles,measurement,setting,value
COc1ccc(CN[C@H](C)c2nc3c(cnn3C3CCCC3)c(=O)[nH]2)c(O)c1 [Compound 16],IC50,PDE2A3 (580–941),> 50000 nM
same,ORAC,[1],4.47 ± 0.10 μmol of Trolox equiv/μmol tested compound
same,"oxygen radical absorbance capacity, ORAC-FL value",[1],4.47 ORAC-FL units
same,"Papp at 10 h, 100 μg/mL","[2]; PAMPA, PBS:EtOH (70:30), mean ± SD of three independent experiments, read-out: Permeability",17 ×10⁻⁶ cm/s
same,prediction of penetration into the CNS,[2]; from PAMPA-BBB Pe,CNS+ (Compounds of high BBB permeation (CNS+) Pe > 4.7)
same,IC50,PDE5A1 (535–860),1900 nM
same,cytotoxicity toward SH-SY5Y cells (MTT),SH-SY5Y cells [3],nearly no toxicity
same,IC50,PDE8A1 (480–820),> 50000 nM
same,IC50,PDE10A2 (448–789),6900 nM
same,IC50,PDE4D2 (86–413),25000 nM
same,disaggregation of Cu^2+-induced Aβ1-42 fibrils (ThT),Aβ1-42 fibrils,64.6%
same,IC50,PDE7A1 (130–482),> 50000 nM
same,logP at 30 min,[4],1.1
same,"chelation of Cu^2+, Fe^2+, Zn^2+ (UV-vis absorbance changes)",[5],formation of 16-Metal ion (II) complex
same,chelation of Fe^3+ (UV-vis),[5],failed to chelate Fe^3+ effectively
same,"intracellular antioxidant activity (ROS, DCFH-DA)",SH-SY5Y cells [6],superior antioxidant activity to that of Trolox
same,"Aβ fibrils by TEM, disaggregation of preformed fibrils",Aβ1-42,drastically reduced the amount of Aβ fibrils
same,"Aβ fibrils by TEM, inhibition of Cu^2+-induced aggregation",Aβ1-42,fewer fibrils were observed than in the presence of CQ
same,IC50,PDE1B2 (10–487),17000 nM
same,"copper redox cycling, OH· production (7-hydroxyl-CCA fluorescence)",[7],fully inhibited
same,IC50,PDE3A (679–1087),> 10000 nM
